From patent publication US12187712B2, “Cardiac sarcomere inhibitors” (Cytokinetics, Inc., priority 2018, dated 2025) come the findings set out here.

The target in the test is T1, bovine cardiac myofibrils (Bos taurus, UniProt Q9BE39).
T1 construct: full-length cardiac myosin in the context of the native sarcomere, skinned myofibril assays were performed; from tissue; host or cells: bovine cardiac left ventricular tissue, detergent-skinned (Triton X-100) myofibrils
In words: Skinned myofibril ATPase assay (PK/LDH-coupled), CDMF75. The test is classed as biochemical. The note with it: inhibition of steady-state ATPase activity of bovine cardiac myofibrils at 75% Ca2+ activation (pCa75). The protocol:
To evaluate the effect of compounds on the ATPase activity of full-length cardiac myosin in the context of the native sarcomere, skinned myofibril assays were performed. Bovine cardiac myofibrils were obtained by homogenizing bovine cardiac left ventricular tissue in the presence of a detergent such as triton X-100. Such treatment removes membranes and a majority of the soluble cytoplasmic proteins but leaves intact the cardiac sarcomeric acto-myosin apparatus. Myofibril preparations retain the ability to hydrolyze ATP in an Ca^2+ regulated manner. ATPase activities of such myofibril preparations in the presence and absence of compounds were assayed at Ca^2+ concentrations activating to a defined fraction of the maximal rate (i.e., 25%, 75%). Small molecule agents were assessed for their ability to inhibit the steady-state ATPase activity of bovine cardiac myofibrils using pyruvate kinase and lactate dehydrogenase (PK/LDH)-coupled enzyme system. This assay regenerates myosin-produced ADP into ATP by oxidizing NADH, producing an absorbance change at 340 nm. Prior to testing small molecule agents, the bovine cardiac myofibrils were assessed for their calcium responsiveness and the calcium concentration that achieves either a 50% (pCa50) or 75% (pCa75) activation of the myofibril system was chosen as the final condition for assessing the inhibitory activity of the small molecule agents. All enzymatic activity was measured in a buffered solution containing 12 mM PIPES (piperazine-N,N′-bis(2-ethanesulfonic acid), 2 mM magnesium chloride at pH 6.8 (PM 12 buffer). Final assay conditions were 1 mg/mL of bovine cardiac myofibrils, 4 U/mL pyruvate kinase, 6 U/mL lactate dehydrogenase, 50 μM ATP, 0.1 mg/mL BSA (bovine serum albumin), 10 ppm antifoam, 1 mM DTT, 0.5 mM NADH, 1.5 mM PEP, 0.6 mM EGTA, and an amount of CaCl2 sufficient to achieve either 50% or 75% activation of the myofibril ATPase activity. Results for compounds tested are provided in Table A. Compounds tested were prepared in accordance with the synthetic procedures described herein.

T1 sequence (Q9BE39 whole entry): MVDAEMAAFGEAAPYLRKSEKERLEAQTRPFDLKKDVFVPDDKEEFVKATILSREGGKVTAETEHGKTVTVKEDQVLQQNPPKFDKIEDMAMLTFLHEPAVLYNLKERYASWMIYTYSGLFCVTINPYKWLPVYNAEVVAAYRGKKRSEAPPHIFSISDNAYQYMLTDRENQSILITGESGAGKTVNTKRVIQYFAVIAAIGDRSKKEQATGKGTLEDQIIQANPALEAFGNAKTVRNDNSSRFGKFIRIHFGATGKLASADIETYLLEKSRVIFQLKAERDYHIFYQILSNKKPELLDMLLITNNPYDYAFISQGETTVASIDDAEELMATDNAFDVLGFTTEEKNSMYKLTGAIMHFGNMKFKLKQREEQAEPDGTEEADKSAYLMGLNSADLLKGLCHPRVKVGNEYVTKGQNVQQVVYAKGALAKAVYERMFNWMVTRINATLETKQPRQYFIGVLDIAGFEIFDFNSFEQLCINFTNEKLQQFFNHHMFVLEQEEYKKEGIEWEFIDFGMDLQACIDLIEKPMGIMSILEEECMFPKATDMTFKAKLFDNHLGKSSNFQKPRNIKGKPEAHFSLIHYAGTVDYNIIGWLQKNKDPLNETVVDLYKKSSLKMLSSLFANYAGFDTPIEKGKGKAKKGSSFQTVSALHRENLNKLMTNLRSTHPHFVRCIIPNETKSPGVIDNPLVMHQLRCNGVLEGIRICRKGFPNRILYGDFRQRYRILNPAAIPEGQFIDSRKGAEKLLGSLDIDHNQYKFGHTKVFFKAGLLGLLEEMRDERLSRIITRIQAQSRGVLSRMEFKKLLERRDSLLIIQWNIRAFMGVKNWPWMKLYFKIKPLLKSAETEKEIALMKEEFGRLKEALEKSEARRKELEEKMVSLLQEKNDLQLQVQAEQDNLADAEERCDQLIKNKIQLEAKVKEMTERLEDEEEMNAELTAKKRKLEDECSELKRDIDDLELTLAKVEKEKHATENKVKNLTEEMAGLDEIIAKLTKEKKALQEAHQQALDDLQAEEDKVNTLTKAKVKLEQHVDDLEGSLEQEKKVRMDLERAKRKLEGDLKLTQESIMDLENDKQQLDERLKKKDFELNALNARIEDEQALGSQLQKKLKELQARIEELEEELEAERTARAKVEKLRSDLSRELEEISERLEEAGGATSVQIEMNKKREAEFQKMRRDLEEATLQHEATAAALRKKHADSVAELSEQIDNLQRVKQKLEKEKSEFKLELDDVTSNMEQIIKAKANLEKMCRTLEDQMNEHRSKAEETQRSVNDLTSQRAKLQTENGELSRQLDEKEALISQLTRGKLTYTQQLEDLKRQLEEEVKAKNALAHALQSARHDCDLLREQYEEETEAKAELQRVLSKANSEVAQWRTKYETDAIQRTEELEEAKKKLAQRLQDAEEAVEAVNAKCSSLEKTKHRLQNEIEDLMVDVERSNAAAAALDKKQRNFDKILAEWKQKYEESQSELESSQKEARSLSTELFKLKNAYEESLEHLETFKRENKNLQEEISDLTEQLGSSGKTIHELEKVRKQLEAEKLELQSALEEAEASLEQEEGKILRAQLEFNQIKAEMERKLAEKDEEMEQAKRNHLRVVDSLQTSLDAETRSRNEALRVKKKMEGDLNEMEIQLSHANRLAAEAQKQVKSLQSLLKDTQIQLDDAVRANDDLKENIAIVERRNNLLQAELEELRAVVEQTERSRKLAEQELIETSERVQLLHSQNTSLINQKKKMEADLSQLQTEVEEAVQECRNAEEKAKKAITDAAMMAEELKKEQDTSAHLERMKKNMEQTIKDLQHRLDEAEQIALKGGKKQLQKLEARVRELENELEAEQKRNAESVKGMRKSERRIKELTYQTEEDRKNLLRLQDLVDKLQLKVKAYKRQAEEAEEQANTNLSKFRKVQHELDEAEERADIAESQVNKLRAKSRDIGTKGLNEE
T1 sequence (P85100 whole entry partner): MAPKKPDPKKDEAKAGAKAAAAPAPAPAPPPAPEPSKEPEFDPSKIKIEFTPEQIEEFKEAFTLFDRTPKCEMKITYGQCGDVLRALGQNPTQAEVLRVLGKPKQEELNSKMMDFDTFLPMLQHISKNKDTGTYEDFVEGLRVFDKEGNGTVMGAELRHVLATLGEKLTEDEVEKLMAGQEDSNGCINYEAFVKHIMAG
T1 sequence (Q3SZE5 whole entry partner): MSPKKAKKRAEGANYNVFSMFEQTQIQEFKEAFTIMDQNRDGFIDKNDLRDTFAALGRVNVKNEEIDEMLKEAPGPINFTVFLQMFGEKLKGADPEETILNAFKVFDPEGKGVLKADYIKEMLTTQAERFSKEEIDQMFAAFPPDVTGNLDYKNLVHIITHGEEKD

As for `Cc1nc(-c2ccc(CNc3cncc(Cl)n3)cc2)no1` [Compound 1, 6-chloro-N-(4-(5-methyl-1,2,4-oxadiazol-3-yl)benzyl)pyrazin-2-amine], the “CDMF75 IC15” value stood at 1.4 µM and half-maximal inhibition (IC50) was put at 8.1 µM.

As to `Cc1nc(-c2ccc(CNc3cnccn3)cc2)no1` [Compound 2, N-(4-(5-methyl-1,2,4-oxadiazol-3-yl)benzyl)pyrazin-2-amine], the “CDMF75 IC15” value came to 0.8 µM and inhibition was half-maximal at 4.3 µM (IC50).

As for `Cc1nc(-c2ccc(CNc3ccncn3)cc2)no1` [Compound 3, N-(4-(5-methyl-1,2,4-oxadiazol-3-yl)benzyl)pyrimidin-4-amine], the “CDMF75 IC15” value was determined as 3.6 µM and the IC50 (usually the concentration needed to halve the response being measured) was found to be 27.7 µM.

As to `Cc1cc(NCc2ccc(-c3noc(C)n3)cc2)ncn1` [Compound 4, 6-methyl-N-(4-(5-methyl-1,2,4-oxadiazol-3-yl)benzyl)pyrimidin-4-amine], the “CDMF75 IC15” value worked out at 1.9 µM and the IC50 stood at 6.6 µM.

As for `Cc1nc(-c2ccc(CNc3cc(C(F)(F)F)ncn3)cc2)no1` [Compound 5, N-(4-(5-methyl-1,2,4-oxadiazol-3-yl)benzyl)-6-(trifluoromethyl)pyrimidin-4-amine], the midpoint of inhibition, the IC50, lay at 3.7 µM.

For `Cc1nc(-c2ccc(CNc3cc(C4CC4)ncn3)cc2)no1` [Compound 6, 6-cyclopropyl-N-(4-(5-methyl-1,2,4-oxadiazol-3-yl)benzyl)pyrimidin-4-amine], the IC50 stood at 27 µM.

For `Cc1nc(-c2ccc(CNc3cc(C#N)ncn3)cc2)no1` [Compound 7, 6-((4-(5-methyl-1,2,4-oxadiazol-3-yl)benzyl)amino)pyrimidine-4-carbonitrile], the midpoint of inhibition, the IC50, lay at 1.8 µM.

With `CCc1cc(NCc2ccc(-c3noc(C)n3)cc2)ncn1` [Compound 8, 6-ethyl-N-(4-(5-methyl-1,2,4-oxadiazol-3-yl)benzyl)pyrimidin-4-amine], the “CDMF75 IC15” value is 3.1 µM and 16.6 µM corresponded to half-maximal inhibition (IC50).

For `Cc1nc(-c2ccc(CNc3cc(Cl)ncn3)cc2)no1` [Compound 9, 6-chloro-N-(4-(5-methyl-1,2,4-oxadiazol-3-yl)benzyl)pyrimidin-4-amine], the “CDMF75 IC15” value came out at 0.3 µM and the IC50 turned out to be 1.2 µM.

With `Cc1nc(-c2ccc(CNc3cnc(C#N)cn3)cc2)no1` [Compound 10, 5-((4-(5-methyl-1,2,4-oxadiazol-3-yl)benzyl)amino)pyrazine-2-carbonitrile], the “CDMF75 IC15” value is 1.3 µM and half-maximal inhibition (IC50) was put at 7.6 µM.

As to `CCc1nc(-c2ccc(CNc3cc(C#N)ncn3)cc2)no1` [Compound 11, 6-((4-(5-ethyl-1,2,4-oxadiazol-3-yl)benzyl)amino)pyrimidine-4-carbonitrile], the “CDMF75 IC15” value is 0.2 µM and the IC50 is 0.7 µM.

Regarding `Cc1nc(-c2ccc(CNc3ccnc(Cl)n3)cc2)no1` [Compound 12, 2-chloro-N-(4-(5-methyl-1,2,4-oxadiazol-3-yl)benzyl)pyrimidin-4-amine], the “CDMF75 IC15” value was 2.5 µM and the IC50 is 9.8 µM.

For the molecule `Cc1nc(-c2ccc(CNc3cnc(Cl)cn3)cc2)no1` [Compound 13, 5-chloro-N-(4-(5-methyl-1,2,4-oxadiazol-3-yl)benzyl)pyrazin-2-amine], the “CDMF75 IC15” value was 0.3 µM and it took 1.5 µM to reach half-maximal inhibition (IC50).

For `Cc1nc(-c2ccc(CNc3ccc(C#N)cn3)cc2)no1` [Compound 14, 6-((4-(5-methyl-1,2,4-oxadiazol-3-yl)benzyl)amino) nicotinonitrile], the “CDMF75 IC15” value was found to be 4.6 µM and the IC50 was determined as 20.9 µM.

`Cc1nc(-c2ccc(CNc3cc(C#N)ccn3)cc2)no1` [Compound 15, 2-((4-(5-methyl-1,2,4-oxadiazol-3-yl)benzyl)amino) isonicotinonitrile]: the “CDMF75 IC15” value amounted to 1.0 µM and half-maximal inhibition (IC50) required 5.5 µM.

In the case of `Cc1nc(-c2ccc(CNc3cnc(C(F)(F)F)cn3)cc2)no1` [Compound 16, N-(4-(5-methyl-1,2,4-oxadiazol-3-yl)benzyl)-5-(trifluoromethyl)pyrazin-2-amine], the “CDMF75 IC15” value came out at 3.1 µM and the IC50 turned out to be 17.3 µM.

For `Cc1nc(-c2ccc(CNc3cc(C#N)ncn3)nc2)no1` [Compound 17, 6-(((5-(5-methyl-1,2,4-oxadiazol-3-yl)pyridin-2-yl)methyl)amino)pyrimidine-4-carbonitrile], the “CDMF75 IC15” value is 2.9 µM and the IC50 came to 18.9 µM.

`Cc1noc(-c2ccc(CNc3cc(Cl)ncn3)cc2)n1` [Compound 18, 6-chloro-N-(4-(3-methyl-1,2,4-oxadiazol-5-yl)benzyl)pyrimidin-4-amine]: the “CDMF75 IC15” value is 0.4 µM and half-maximal inhibition (IC50) required 2.1 µM.

Consider `Cc1nc(-c2ccc(CNc3ccc(Cl)cn3)cc2)no1` [Compound 20, 5-chloro-N-(4-(5-methyl-1,2,4-oxadiazol-3-yl)benzyl)pyridin-2-amine], for which the “CDMF75 IC15” value stood at 1.5 µM and the IC50 was 5.2 µM.

In the case of `Cc1nc(-c2ccc(C(C)Nc3cc(Cl)ncn3)cc2)no1` (stereo not drawn) [Compound 21, 6-chloro-N-(1-(4-(5-methyl-1,2,4-oxadiazol-3-yl)phenyl)ethyl)pyrimidin-4-amine], the “CDMF75 IC15” value came to 2.2 µM and it took 12.8 µM to reach half-maximal inhibition (IC50).

As to `c1cnc(NCc2ccc(-c3noc(C4CC4)n3)cc2)cn1` [Compound 22, N-(4-(5-cyclopropyl-1,2,4-oxadiazol-3-yl)benzyl)pyrazin-2-amine], the “CDMF75 IC15” value worked out at 0.4 µM and the IC50 turned out to be 1.8 µM.

With `c1cnc(NCc2ccc(-c3noc(C4CCC4)n3)cc2)cn1` [Compound 23, N-(4-(5-cyclobutyl-1,2,4-oxadiazol-3-yl)benzyl)pyrazin-2-amine], the “CDMF75 IC15” value came out at 0.3 µM and the IC50 is 1.4 µM.

Turning to `FC(F)c1nc(-c2ccc(CNc3cnccn3)cc2)no1` [Compound 24, N-(4-(5-(difluoromethyl)-1,2,4-oxadiazol-3-yl)benzyl)pyrazin-2-amine], the “CDMF75 IC15” value is 0.8 µM and the IC50 was found to be 3.1 µM.

For the molecule `FCc1nc(-c2ccc(CNc3cnccn3)cc2)no1` [Compound 25, N-(4-(5-(fluoromethyl)-1,2,4-oxadiazol-3-yl)benzyl)pyrazin-2-amine], the “CDMF75 IC15” value was found to be 1.1 µM and the IC50 stood at 4.5 µM.

Consider `Cc1nc(-c2ccc(C(C)Nc3cnccn3)cc2)no1` (stereo not drawn) [Compound 26, N-(1-(4-(5-methyl-1,2,4-oxadiazol-3-yl)phenyl)ethyl)pyrazin-2-amine], for which the “CDMF75 IC15” value worked out at 1.1 µM and the IC50 is 5.6 µM.

Consider `Cc1cnc(-c2ccc(CNc3cc(Cl)ncn3)cc2)o1` [Compound 27, 6-chloro-N-(4-(5-methyloxazol-2-yl)benzyl)pyrimidin-4-amine], for which the “CDMF75 IC15” value amounted to 1.2 µM and half-maximal inhibition (IC50) required 8.9 µM.

As for `Cc1cnn(-c2ccc(CNc3cnccn3)cc2)c1` [Compound 29, N-(4-(4-methyl-1H-pyrazol-1-yl)benzyl)pyrazin-2-amine], the “CDMF75 IC15” value stood at 8.1 µM and the IC50 was 38.9 µM.

With `COC(=O)c1nc(-c2ccc(CNc3cnccn3)cc2)no1` [Compound 30, methyl 3-(4-((pyrazin-2-ylamino)methyl)phenyl)-1,2,4-oxadiazole-5-carboxylate], the “CDMF75 IC15” value is 0.5 µM and the IC50 turned out to be 2.6 µM.

As to `C[C@@H](Nc1cnccn1)c1ccc(-c2noc(C3CC3)n2)cc1` [Compound 31, (R)-N-(1-(4-(5-cyclopropyl-1,2,4-oxadiazol-3-yl)phenyl)ethyl)pyrazin-2-amine], the “CDMF75 IC15” value was determined as 0.4 µM and the IC50 came out at 1.51 µM.

For the molecule `C[C@@H](Nc1cnccn1)c1ccc(-c2noc(C3CCC3)n2)cc1` [Compound 32, (R)-N-(1-(4-(5-cyclobutyl-1,2,4-oxadiazol-3-yl)phenyl)ethyl)pyrazin-2-amine], the “CDMF75 IC15” value stood at 0.3 µM and half-maximal inhibition (IC50) required 1.4 µM.

For `C[C@@H](Nc1cnccn1)c1ccc(-c2noc(C(F)F)n2)cc1` [Compound 33, (R)-N-(1-(4-(5-(difluoromethyl)-1,2,4-oxadiazol-3-yl)phenyl)ethyl)pyrazin-2-amine], the “CDMF75 IC15” value is 0.3 µM and half-maximal inhibition (IC50) required 1.5 µM.

As to `CC(C)c1nc(-c2ccc([C@@H](C)Nc3cnccn3)cc2)no1` [Compound 35, (R)-N-(1-(4-(5-isopropyl-1,2,4-oxadiazol-3-yl)phenyl)ethyl)pyrazin-2-amine], the “CDMF75 IC15” value was 0.7 µM and the IC50 stood at 3 µM.

On to `C[C@@H](Nc1cnccn1)c1ccc(-c2noc(C(C)(C)C)n2)cc1` [Compound 36, (R)-N-(1-(4-(5-(tert-butyl)-1,2,4-oxadiazol-3-yl)phenyl)ethyl)pyrazin-2-amine], for which the “CDMF75 IC15” value came to 7.1 µM and half-maximal inhibition (IC50) required 36.5 µM.
